# In ChEMBL document CHEMBL2074153, “Identification of organic anion transporting polypeptide 4 (Oatp4) as a major full-length isoform of the liver-specific transporter-1 (rlst-1) in rat liver” (FEBS Lett, 2000):
# T1: Solute carrier organic anion transporter family member 1B2 (Rattus norvegicus, UniProt Q9QZX8)
# T1 sequence (Q9QZX8 whole entry): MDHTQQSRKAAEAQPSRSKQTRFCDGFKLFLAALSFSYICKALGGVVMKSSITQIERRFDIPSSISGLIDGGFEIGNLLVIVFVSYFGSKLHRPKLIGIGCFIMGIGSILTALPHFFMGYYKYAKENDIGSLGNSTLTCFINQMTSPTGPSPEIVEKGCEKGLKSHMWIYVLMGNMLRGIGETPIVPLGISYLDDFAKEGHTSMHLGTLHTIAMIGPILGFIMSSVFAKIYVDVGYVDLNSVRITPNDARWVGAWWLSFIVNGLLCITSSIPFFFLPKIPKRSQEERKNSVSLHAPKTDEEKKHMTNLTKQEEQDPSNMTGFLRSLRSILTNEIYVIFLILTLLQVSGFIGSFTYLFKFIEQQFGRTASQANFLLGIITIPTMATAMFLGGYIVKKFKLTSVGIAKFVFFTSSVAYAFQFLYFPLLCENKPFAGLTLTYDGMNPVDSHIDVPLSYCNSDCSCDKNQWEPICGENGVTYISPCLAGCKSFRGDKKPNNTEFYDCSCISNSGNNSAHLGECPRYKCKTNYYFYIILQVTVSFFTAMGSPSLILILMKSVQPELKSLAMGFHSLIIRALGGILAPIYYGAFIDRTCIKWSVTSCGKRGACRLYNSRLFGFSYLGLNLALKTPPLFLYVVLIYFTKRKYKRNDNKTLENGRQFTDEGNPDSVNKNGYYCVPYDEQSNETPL
# Legend:
# [1] = target: T1, Solute carrier organic anion transporter family member 1B2; assay: (§1) TP_TRANSPORTER: uptake in Xenopus laevis oocytes; type: functional, cell-based; details: oocyte
# [2] = substrate: O=C1OC(c2ccc(O)c(S(=O)(=O)O)c2)(c2ccc(O)c(S(=O)(=O)O)c2)c2c(Br)c(Br)c(Br)c(Br)c21; assay: as §1; type: functional, cell-based, Oocyte
Molecule,Activity [1],Km [2] [µM]
N[C@@H](Cc1cc(I)c(Oc2cc(I)c(O)c(I)c2)c(I)c1)C(=O)O [LEVOTHYROXINE],substrate [+],–
N[C@@H](Cc1cc(I)c(Oc2ccc(O)c(I)c2)c(I)c1)C(=O)O [LIOTHYRONINE],substrate [+],–
Solute carrier organic anion transporter family member 1B2 (Rattus norvegicus) (protein) MDHTQQSRKAAEAQPSRSKQTRFCDGFKLFLAALSFSYICKALGGVVMKSSITQIERRFDIPSSISGLIDGGFEIGNLLVIVFVSYFGSKLHRPKLIGIGCFIMGIGSILTALPHFFMGYYKYAKENDIGSLGNSTLTCFINQMTSPTGPSPEIVEKGCEKGLKSHMWIYVLMGNMLRGIGETPIVPLGISYLDDFAKEGHTSMHLGTLHTIAMIGPILGFIMSSVFAKIYVDVGYVDLNSVRITPNDARWVGAWWLSFIVNGLLCITSSIPFFFLPKIPKRSQEERKNSVSLHAPKTDEEKKHMTNLTKQEEQDPSNMTGFLRSLRSILTNEIYVIFLILTLLQVSGFIGSFTYLFKFIEQQFGRTASQANFLLGIITIPTMATAMFLGGYIVKKFKLTSVGIAKFVFFTSSVAYAFQFLYFPLLCENKPFAGLTLTYDGMNPVDSHIDVPLSYCNSDCSCDKNQWEPICGENGVTYISPCLAGCKSFRGDKKPNNTEFYDCSCISNSGNNSAHLGECPRYKCKTNYYFYIILQVTVSFFTAMGSPSLILILMKSVQPELKSLAMGFHSLIIRALGGILAPIYYGAFIDRTCIKWSVTSCGKRGACRLYNSRLFGFSYLGLNLALKTPPLFLYVVLIYFTKRKYKRNDNKTLENGRQFTDEGNPDSVNKNGYYCVPYDEQSNETPL,–,1.1
